Laboratory results as given in PubChem BioAssay AID1259407 (Chemical Carcinogenesis Research Information System (CCRIS), 2018).
Activity calls are given as the source filed them. No rule for the calls is given here.

System: CCRIS mutagenicity, Ames/micronucleus/aberration tests
Test: CCRIS mutagenicity studies

Measured: mutagenic call

c1ccc(OP(Oc2ccccc2)Oc2ccccc2)cc1
inactive: Test System: AMES SALMONELLA TYPHIMURIUM, Strain/Indicator: TA98, Metabolic Activation: HAMSTER, LIVER, S-9, AROCLOR 1254 (10%), Method: PREINCUBATION inactive; negative | Test System: AMES SALMONELLA TYPHIMURIUM, Strain/Indicator: TA98, Metabolic Activation: NONE, Method: PREINCUBATION inactive; negative | Test System: AMES SALMONELLA TYPHIMURIUM, Strain/Indicator: TA98, Metabolic Activation: RAT, LIVER, S-9, AROCLOR 1254 (10%), Method: PREINCUBATION inactive; negative | Test System: AMES SALMONELLA TYPHIMURIUM, Strain/Indicator: TA100, Metabolic Activation: HAMSTER, LIVER, S-9, AROCLOR 1254 (10%), Method: PREINCUBATION inactive; negative | Test System: AMES SALMONELLA TYPHIMURIUM, Strain/Indicator: TA100, Metabolic Activation: NONE, Method: PREINCUBATION inactive; negative | Test System: AMES SALMONELLA TYPHIMURIUM, Strain/Indicator: TA100, Metabolic Activation: RAT, LIVER, S-9, AROCLOR 1254 (10%), Method: PREINCUBATION inactive; negative | Test System: AMES SALMONELLA TYPHIMURIUM, Strain/Indicator: TA1535, Metabolic Activation: HAMSTER, LIVER, S-9, AROCLOR 1254 (10%), Method: PREINCUBATION inactive; negative | Test System: AMES SALMONELLA TYPHIMURIUM, Strain/Indicator: TA1535, Metabolic Activation: NONE, Method: PREINCUBATION inactive; negative | Test System: AMES SALMONELLA TYPHIMURIUM, Strain/Indicator: TA1535, Metabolic Activation: RAT, LIVER, S-9, AROCLOR 1254 (10%), Method: PREINCUBATION inactive; negative | Test System: AMES SALMONELLA TYPHIMURIUM, Strain/Indicator: TA1537, Metabolic Activation: HAMSTER, LIVER, S-9, AROCLOR 1254 (10%), Method: PREINCUBATION inactive; negative | Test System: AMES SALMONELLA TYPHIMURIUM, Strain/Indicator: TA1537, Metabolic Activation: NONE, Method: PREINCUBATION inactive; negative | Test System: AMES SALMONELLA TYPHIMURIUM, Strain/Indicator: TA1537, Metabolic Activation: RAT, LIVER, S-9, AROCLOR 1254 (10%), Method: PREINCUBATION inactive; negative

NC(=NCCCCCCN=C(N)/N=C(\N)Nc1ccc(Cl)cc1)/N=C(\N)Nc1ccc(Cl)cc1
inactive: End Point: IN VITRO CHROMOSOMAL ABERRATIONS, Test System: SYRIAN HAMSTER EMBRYO (SHE) CELLS, Metabolic Activation: NONE inactive; negative; toxic at 10 um | End Point: IN VITRO CHROMOSOMAL ABERRATIONS, Test System: SYRIAN HAMSTER EMBRYO (SHE) CELLS, Metabolic Activation: RAT, LIVER, S-9 inactive; negative

CC(=O)N(C(C)=O)c1cc(N=Nc2ccc(C)cc2)ccc1C
inactive: Test System: AMES SALMONELLA TYPHIMURIUM, Strain/Indicator: TA98, Metabolic Activation: NONE, Method: SUSPENSION/PLATE inactive; negative | Test System: AMES SALMONELLA TYPHIMURIUM, Strain/Indicator: TA98, Metabolic Activation: RAT, LIVER, S-9, PHENOBARBITAL AND 5,6-BENZOFLAVONE, Method: SUSPENSION/PLATE inactive; negative | Test System: AMES SALMONELLA TYPHIMURIUM, Strain/Indicator: TA100, Metabolic Activation: NONE, Method: SUSPENSION/PLATE inactive; negative | Test System: AMES SALMONELLA TYPHIMURIUM, Strain/Indicator: TA100, Metabolic Activation: RAT, LIVER, S-9, PHENOBARBITAL AND 5,6-BENZOFLAVONE, Method: SUSPENSION/PLATE inactive; negative

O=S1OC[C@@H]2[C@H](CO1)[C@]1(Cl)C(Cl)=C(Cl)[C@@]2(Cl)C1(Cl)Cl (stereo not given in full)
inactive: Test System: AMES SALMONELLA TYPHIMURIUM, Strain/Indicator: TA97, Metabolic Activation: NONE, Method: STANDARD PLATE inactive; negative | Test System: AMES SALMONELLA TYPHIMURIUM, Strain/Indicator: TA97, Metabolic Activation: RAT, LIVER, S-9, AROCLOR 1254, Method: STANDARD PLATE inactive; negative | Test System: AMES SALMONELLA TYPHIMURIUM, Strain/Indicator: TA98, Metabolic Activation: NONE, Method: STANDARD PLATE inactive; negative | Test System: AMES SALMONELLA TYPHIMURIUM, Strain/Indicator: TA98, Metabolic Activation: RAT, LIVER, S-9, AROCLOR 1254, Method: STANDARD PLATE inactive; negative | Test System: AMES SALMONELLA TYPHIMURIUM, Strain/Indicator: TA100, Metabolic Activation: NONE, Method: STANDARD PLATE inactive; negative | Test System: AMES SALMONELLA TYPHIMURIUM, Strain/Indicator: TA100, Metabolic Activation: RAT, LIVER, S-9, AROCLOR 1254, Method: STANDARD PLATE inactive; negative | Test System: AMES SALMONELLA TYPHIMURIUM, Strain/Indicator: TA102, Metabolic Activation: NONE, Method: STANDARD PLATE inactive; negative | Test System: AMES SALMONELLA TYPHIMURIUM, Strain/Indicator: TA102, Metabolic Activation: RAT, LIVER, S-9, AROCLOR 1254, Method: STANDARD PLATE inactive; negative

COC(=O)N[C@H]1[C@H](O[C@H]2[C@H](O)[C@@H](N)[C@H](O[C@H]3[C@H](O)[C@@H](N)[C@H](O)O[C@@H]3CO)O[C@@H]2CO)O[C@H](CO)[C@@H](O[C@@H]2O[C@H](CO)[C@@H](O[C@@H]3O[C@H](CO)[C@@H](O[C@@H]4O[C@H](CO)[C@@H](O[C@@H]5O[C@H](CO)[C@@H](O[C@@H]6O[C@H](CO)[C@@H](O[C@@H]7O[C@H](CO)[C@@H](O)[C@H](O)[C@H]7N)[C@H](O)[C@H]6N)[C@H](O)[C@H]5N)[C@H](O)[C@H]4N)[C@H](O)[C@H]3N)[C@H](O)[C@H]2N)[C@@H]1O
inactive: End Point: IN VIVO CHROMOSOMAL ABERRATIONS, Test System: BONE MARROW CELLS (LYMPHOCYTES), Species: MOUSE, Strain/Sex: ICR/MALE, Route: DRINKING WATER inactive; negative | End Point: IN VIVO CHROMOSOMAL ABERRATIONS, Test System: BONE MARROW, Species: MOUSE, Strain/Sex: ICR/MALE, Route: DRINKING WATER inactive; negative | End Point: IN VIVO CHROMOSOMAL ABERRATIONS, Test System: BONE MARROW, Species: MOUSE, Strain/Sex: ICR/PARENT, F1, F2, F3 GENERATIONS, Strain/Sex: ICR/PARENT, F1, F2, F3 GENERATIONS, Route: DRINKING WATER inactive; negative in all generations | End Point: IN VIVO MICRONUCLEUS, Test System: BONE MARROW POLYCHROMATIC ERYTHROCYTES, Species: MOUSE, Strain/Sex: ICR/MALE, Route: DRINKING WATER inactive; negative
